One data set concerns the target T1, Cyclin H (CCNH) (Homo sapiens, UniProt P51946).
T1 construct: purchased Sino Biological Inc. Lot; ME12NO2769 (a lot number; catalogue number not given); host or cells: E. coli
T1 sequence (P51946 1-323): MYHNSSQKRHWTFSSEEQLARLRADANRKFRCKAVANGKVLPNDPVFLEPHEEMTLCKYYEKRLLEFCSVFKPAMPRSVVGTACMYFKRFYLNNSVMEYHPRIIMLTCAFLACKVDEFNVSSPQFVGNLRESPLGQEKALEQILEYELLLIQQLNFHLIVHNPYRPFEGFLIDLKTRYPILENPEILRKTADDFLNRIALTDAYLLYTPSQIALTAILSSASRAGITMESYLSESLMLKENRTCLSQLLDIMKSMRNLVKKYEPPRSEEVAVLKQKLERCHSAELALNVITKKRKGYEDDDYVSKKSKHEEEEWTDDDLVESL
Put plainly: Surface plasmon resonance (SPR) on BIAcore. To be noted: binding to CCNH; for kon: association rate, read-out: Ka. How it is done:
Recombinant Cyclin H (CCNH) protein with a C-HIS tag (Lot. ME12NO2769, 38.46 kDa) was obtained from Sino Biological Inc. and stored at −80 °C. In short, the cyclin H (Homo sapiens) gene was amplified by PCR and cloned into an expression vector which was transformed into E. coli followed by the selection and establishment of high expression transformants. The protein was purified using immobilized metal ion affinity chromatography and dissolved in PBS (pH 7.4). SPR measurement was performed with Biacore T200 instrument (GE), at 25 °C, with a flow rate of 30 μL/min. CM5 sensor chips, HBS-EP running buffer and the Amine Coupling Kit, including 1-ethyl-3(3-dimethylaminopropyl) carbodiimide hydrochloride (EDC), N-hydroxysuccinimide (NHS), 1.0 M ethanolamine-HCl (pH 8.5) were purchased from GE. The binding properties of candidalysin to CCNH were evaluated upon immobilization of CCNH onto CM5 chip surface in flow cell 2 (FC-2) using Biacore Amine Coupling Kit according to the manufacturer’s instructions. CCNH was diluted to 20 μg/ml in acetate buffer (pH 4.0) in advance and immobilized on the CM5 Chip following the EDC/NHS protocol. The reached immobilized target level was 1200 RU. The reference flow cell (FC-1) was blank-immobilized following the templated procedure. BIAcore measurements were performed starting from a 1:1 serial dilution of candidalysin following the templated multicycle analysis (association time 120 s, dissociation time 150 s, flow 30 μL/min). The SPR measurement for Ece1-II, Ece1-IV, Ece1-V and human cathelicidin (Solarbio, CLP0454) to CCNH were performed with Biacore 8 K instrument (GE) by PBST running buffer, and the other conditions were the same.
A general note: Surface plasmon resonance follows binding to a sensor surface in real time, without labels.

A further data set has as its system FaDu cells. As to the kind of experiment: Western blot of CCNH and γ-H2AX, FaDu cells. The format is cell-based. The conditions noted are these: comparison toxins / low-dose Triton X-100. How it is done:
(§1) Cells were lysed with cell lysis buffer (Beyotime, #P0013) on ice for 30 min. The supernatant of cell lysate was then collected in a table-top refrigerated centrifuge at 4 °C and 14,000 × g for 10 min. Protein concentration was determined by Pierce™ BCA Protein Assay Kit (Thermo Scientific™, #23227). Antibodies against the following proteins were used for Western blotting analysis: CCNH antibody (CST,Rabbit Source, Cat#2927, 1:1000 dilution), gama-H2AX antibody (CST, Rabbit Source, Cat#97185, 1:1000 dilution), GAPDH (D16H11) XP® Rabbit mAb (CST, Rabbit Source, Cat#5174 S, 1:1000 dilution), Anti-CDK2 (phospho T160) + CDK1 (phospho T161) antibody (Abcam, Rabbit Source, Cat#EPR17621, 1:1000 dilution), Anti-rabbit IgG, HRP-linked Antibody (CST, Goat Source, Cat#7074, 1:5000 dilution), […] Tag (D6W5B) Rabbit mAb (CST, Rabbit Source, Cat#14793, 1:1000 dilution), GFP (4B10) Mouse mAb (CST, Mouse Source, Cat #2955, 1:1000 dilution), Anti-mouse IgG,HRP-linked antibody (CST, Goat Source, Cat#7076, 1:5000 dilution). Membranes were treated with SuperSignal™ West Pico PLUS Chemiluminescent Substrate (Thermo Scientific™, #34577) prior to visualization in the Chemiluminescence Imaging Analysis System (BG-gdsAUTO720, Baygene). GAPDH was used as the loading control.
A general note: In western blotting, separated proteins are transferred to a membrane and probed.

Another data set has as its system A549 cells. As to the kind of experiment: Western blot of CCNH and γ-H2AX, A549 and CCNH-KD A549 cells. The format is cell-based. The conditions noted are these: A549, 10 μM, 4 h. How it is done: as §1

Ends that are not written are not given here.

With `CC[C@H](C)[C@H](NC(=O)[C@H](CO)NC(=O)[C@H](CCC(N)=O)NC(=O)[C@H](CCC(N)=O)NC(=O)[C@@H](NC(=O)CNC(=O)[C@@H](NC(=O)[C@H](C)NC(=O)[C@@H](NC(=O)[C@H](CCCNC(=N)N)NC(=O)[C@H](C)NC(=O)[C@@H](NC(=O)[C@@H](NC(=O)[C@H](CCC(=O)O)NC(=O)[C@@H]1CCCN1C(=O)[C@H](CC(C)C)NC(=O)[C@H](CCCNC(=N)N)NC(=O)[C@@H](NC(=O)[C@@H](NC(=O)[C@H](C)NC(=O)[C@H](CC(N)=O)NC(=O)[C@H](C)NC(=O)[C@@H](NC(=O)[C@H](CC(=O)O)NC(=O)[C@H](CC(=O)O)NC(=O)[C@H](CC(N)=O)NC(=O)[C@H](C)NC(=O)CNC(=O)[C@@H](N)CC(=O)O)C(C)C)C(C)C)C(C)C)[C@@H](C)CC)C(C)C)C(C)C)[C@@H](C)O)C(C)C)C(=O)N[C@@H](CCC(=O)O)C(=O)N[C@@H](CC(N)=O)C(=O)N[C@@H](C)C(=O)N[C@@H](CCCCN)C(=O)N[C@@H](CCCNC(=N)N)C(=O)O` [Ece1-V], the kon at Cyclin H (CCNH) came to 228 M⁻¹ s⁻¹.

As to mellitin: pore forming toxin, in the data set on FaDu cells, the “DNA damage (CCNH and γ-H2AX expression)” value is listed as “failed to induce severe DNA damage”.

As for Triton X-100, in the data set on FaDu cells, the “DNA damage (CCNH and γ-H2AX expression)” value is listed as “failed to induce severe DNA damage”.

The term Kd denotes the equilibrium constant for the complex coming apart. Lower therefore signals tighter binding. On to FKRIVQRIKDFLRNLVPRTES [Amp], for which the kon at Cyclin H (CCNH) was determined as 3040 M⁻¹ s⁻¹. The molecule further gave a Kd on Cyclin H (CCNH) (column pK, row KD (M)) of 6.26e-05 M.

For `CN(C)C/C=C/C(=O)Nc1ccc(C(=O)Nc2cccc(Nc3ncc(Cl)c(-c4c[nH]c5ccccc45)n3)c2)cc1` [THZ1], the “CCNH and γ-H2AX expression” value with A549 cells is “prominently elevated CCNH and γ-H2AX expression”.

As for `CC[C@H](C)[C@H](NC(=O)CNC(=O)[C@H](C)NC(=O)[C@@H](NC(=O)[C@@H](NC(=O)[C@H](CO)NC(=O)[C@H](CC(=O)O)NC(=O)[C@@H](NC(=O)[C@H](CC(=O)O)NC(=O)[C@@H](N)CCC(=O)O)[C@@H](C)CC)C(C)C)C(C)C)C(=O)N[C@H](C(=O)N[C@@H](C)C(=O)N[C@@H](CC(=O)O)C(=O)N[C@@H](CCSC)C(=O)N1CCC[C@H]1C(=O)N[C@@H](Cc1ccccc1)C(=O)N[C@H](C(=O)N[C@H](C(=O)N[C@@H](CCCNC(=N)N)C(=O)N[C@@H](C)C(=O)N[C@H](C(=O)N[C@@H](CC(=O)O)C(=O)N[C@H](C(=O)N[C@@H](C)C(=O)N[C@@H](CCSC)C(=O)N[C@H](C(=O)N[C@@H](CO)C(=O)N[C@H](C(=O)N[C@@H](C)C(=O)N[C@@H](CO)C(=O)N[C@H](C(=O)N[C@@H](CCCCN)C(=O)N[C@@H](CCCNC(=N)N)C(=O)O)[C@@H](C)O)C(C)C)[C@@H](C)O)[C@@H](C)O)C(C)C)C(C)C)C(C)C)[C@@H](C)CC` [Ece1-IV], the kon on Cyclin H (CCNH) was determined as 49.8 M⁻¹ s⁻¹.

For the origin of these results see publication PMC10899660, “Global fungal-host interactome mapping identifies host targets of candidalysin” (Nature Communications, 2024).
